According to US20260262643A1, “HERBICIDAL BENZOXAZINES” (FMC CORPORATION, priority 2022, published 2026):

How the values were obtained:
Pigweed, Redroot [1] = experiment: Test C preemergence; format: in vivo, Amaranthus retroflexus; conditions: 1000 g ai/ha, visual rating after 10 days, 0 to 100 scale (0 no effect, 100 complete control)
Source text: (§1) Seeds of plant species selected from barnyardgrass (Echinochloa crusgalli), blackgrass (Alopecurus myosuroides), corn (Zea mays), foxtail, giant (giant foxtail, Setaria faberi), green foxtail (Setaria viridis), goosegrass (Eleusine indica), kochia (Bassia scoparia), oat, wild (wild oat, Avena fatua), pigweed, palmer (palmer amaranth, palmer pigweed, Amaranthus palmeri), Pigweed, Redroot (redroot pigweed, Amaranthus retroflexus), ragweed (common ragweed, Ambrosia artemisiifolia), ryegrass, Italian ([…] ryegrass, Lolium multiflorum), soybean (Glycine max), and wheat (Triticum aestivum) were planted into a blend of loam soil and sand and treated preemergence with a directed soil spray using test chemicals formulated in a non-phytotoxic solvent mixture which included a surfactant. At the same time, plants selected from these crops and weed species and also galium (catchweed bedstraw, Galium aparine) and horseweed (Erigeron canadensis) were planted in pots containing the same blend of loam soil and sand and treated with postemergence applications of test chemicals formulated in the same manner. Plants ranged in height from 2 to 10 cm and were in the one- to two-leaf stage for the postemergence treatment. Treated plants and untreated controls were maintained in a greenhouse for 10 days, after which time all treated plants were compared to untreated controls and visually evaluated for injury. Plant response ratings, summarized in Table C, are based on a 0 to 100 scale where 0 is no effect and 100 is complete control. A dash (-) response means no test result.

barnyardgrass [2] = experiment: Test C postemergence; format: in vivo, Echinochloa crusgalli; conditions: Postemergence, 1000 g ai/ha
Summary of the method: (§2)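 Visual injury ratings on a 0–100 scale (100 = complete control) were made against untreated controls 10 days after treatment in the greenhouse. Compounds, formulated with surfactant in non-phytotoxic solvent, were sprayed on soil preemergence or onto one- to two-leaf plants 2–10 cm tall postemergence.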

ragweed [3] = experiment: Test C postemergence; format: in vivo, Ambrosia artemisiifolia; conditions: Postemergence, 1000 g ai/ha
Summary of the method: as §2

ragweed [4] = experiment: Test C preemergence; format: in vivo, Ambrosia artemisiifolia; conditions: Preemergence, 1000 g ai/ha; visual rating after 10 days, 0 to 100 scale (0 no effect, 100 complete control)
Summary of the method: as §2

ryegrass, Italian [5] = experiment: Test C preemergence; format: in vivo, Lolium multiflorum; conditions: Preemergence, 1000 g ai/ha; visual rating after 10 days, 0 to 100 scale (0 no effect, 100 complete control)
Summary of the method: as §2

blackgrass = experiment: Test C postemergence; format: in vivo, Alopecurus myosuroides; conditions: Postemergence, 1000 g ai/ha; for pest or weed control at 1000 g/ha: Alopecurus myosuroides, post-emergence, 240 h, read-out: Plant response rating, Blackgrass
Summary of the method: as §2

foxtail, giant [6] = experiment: Test C postemergence; format: in vivo, Setaria faberi; conditions: Postemergence, 1000 g ai/ha
Summary of the method: as §2

Pigweed, Redroot [7] = experiment: Test C postemergence; format: in vivo, Amaranthus retroflexus; conditions: 1000 g ai/ha
Source text: as §1

kochia [8] = experiment: Test C preemergence; format: in vivo, Bassia scoparia; conditions: Preemergence, 1000 g ai/ha; visual rating after 10 days, 0 to 100 scale (0 no effect, 100 complete control)
Summary of the method: as §2

corn = experiment: Test C postemergence; format: in vivo, Zea mays; conditions: Postemergence, 1000 g ai/ha; for Corn plant response rating (crop injury, 0 = no effect, 100 = complete kill) at 1000 g/ha: Zea mays, post-emergence, 240 h
Summary of the method: as §2

barnyardgrass [9] = experiment: Test C preemergence; format: in vivo, Echinochloa crusgalli; conditions: Preemergence, 1000 g ai/ha; visual rating after 10 days, 0 to 100 scale (0 no effect, 100 complete control)
Summary of the method: as §2

galium = experiment: Test C postemergence; format: in vivo, Galium aparine; conditions: Postemergence, 1000 g ai/ha
Summary of the method: as §2

wheat = experiment: Test C postemergence; format: in vivo, Triticum aestivum; conditions: Postemergence, 1000 g ai/ha
Summary of the method: as §2

foxtail, giant [10] = experiment: Test C preemergence; format: in vivo, Setaria faberi; conditions: Preemergence, 1000 g ai/ha; visual rating after 10 days, 0 to 100 scale (0 no effect, 100 complete control)
Summary of the method: as §2

ryegrass, Italian [11] = experiment: Test C postemergence; format: in vivo, Lolium multiflorum; conditions: Postemergence, 1000 g ai/ha
Summary of the method: as §2

kochia [12] = experiment: Test C postemergence; format: in vivo, Bassia scoparia; conditions: Postemergence, 1000 g ai/ha
Summary of the method: as §2

[13] = 10 days, visual 0 to 100 scale (0 no effect, 100 complete control)
[14] = 0 to 100 scale, 0 no effect, 100 complete control

Compound	Plant response rating, Pigweed, Redroot (Pigweed, Redroot [1])	Plant response rating, Ragweed (ragweed [4])	Plant response rating, Ryegrass, Italian (ryegrass, Italian [5])	Plant response rating, Kochia (kochia [8])	Plant response rating, Barnyardgrass (barnyardgrass [9])	Plant response rating, Foxtail, Giant (foxtail, giant [10])	Plant response rating, Barnyardgrass (barnyardgrass [2]; [14])	Plant response rating, Ragweed (ragweed [3]; [14])	Plant response rating, Blackgrass (blackgrass; [14])	Plant response rating, Foxtail, Giant (foxtail, giant [6]; [14])	Plant response rating, Pigweed, Redroot (Pigweed, Redroot [7]; [14])	Plant response rating, Corn (corn; [14])	Plant response rating, Galium (galium; [14])	Plant response rating, Wheat (wheat; [14])	Plant response rating, Ryegrass, Italian (ryegrass, Italian [11]; [14])	Plant response rating, Kochia (kochia [12]; [14])	other results
C[C@H]1CN(C(=O)c2cccc(-c3ccncn3)c2)c2cccc(Cl)c2O1 [Compound 287]	0	0	20	30	60	0	–	–	–	–	–	–	–	–	–	–	Plant response rating, Barnyardgrass (barnyardgrass [2]; [13]): 20; Plant response rating, Ragweed (ragweed [3]; [13]): 0; Plant response rating, Blackgrass (blackgrass; [13]): 0; Plant response rating, Foxtail, Giant (foxtail, giant [6]; [13]): 10; Plant response rating, Pigweed, Redroot (Pigweed, Redroot [7]; [13]): 20; Plant response rating, Corn (corn; [13]): 0; Plant response rating, Galium (galium; [13]): 20; Plant response rating, Wheat (wheat; [13]): 0; Plant response rating, Ryegrass, Italian (ryegrass, Italian [11]; [13]): 0; Plant response rating, Kochia (kochia [12]; [13]): 10
CC1CN(C(=O)c2ccnc(-n3ccnc3)c2)c2cccc(Cl)c2O1 (stereo not shown) [Compound 197]	30	0	0	0	0	30	0	0	0	0	50	0	30	0	0	10	–
CC1(C)CN(C(=O)c2ccnc(-n3cncn3)c2)c2ccccc2O1 [Compound 202]	0	0	0	0	0	0	0	0	–	0	0	–	0	30	0	0	pest or weed control at 1000 g/ha (blackgrass; [14]): 0%; Corn plant response rating (crop injury, 0 = no effect, 100 = complete kill) at 1000 g/ha (corn; [14]): 0%
O=C(c1cccc(-n2cncn2)c1)N1CC2(CC2)Oc2ccccc21 [Compound 201]	–	0	0	0	0	10	10	0	–	10	0	–	40	0	0	10	pest or weed control at 1000 g/ha (blackgrass; [14]): 0%; Corn plant response rating (crop injury, 0 = no effect, 100 = complete kill) at 1000 g/ha (corn; [14]): 0%
C[C@H]1CN(C(=O)c2cccc(-c3cccnc3)c2)c2cccc(Cl)c2O1 [Compound 200]	0	0	0	0	0	0	10	0	0	0	20	20	30	0	0	0	–
CCC1CN(C(=O)c2ccnc(-c3cccnc3)c2)c2cccc(Cl)c2O1 (racemic) [Compound 286]	0	0	0	0	0	0	–	–	–	–	–	–	–	–	–	–	Plant response rating, Barnyardgrass (barnyardgrass [2]; [13]): 0; Plant response rating, Ragweed (ragweed [3]; [13]): 0; Plant response rating, Blackgrass (blackgrass; [13]): 0; Plant response rating, Foxtail, Giant (foxtail, giant [6]; [13]): 0; Plant response rating, Pigweed, Redroot (Pigweed, Redroot [7]; [13]): 0; Plant response rating, Corn (corn; [13]): 0; Plant response rating, Galium (galium; [13]): 0; Plant response rating, Wheat (wheat; [13]): 0; Plant response rating, Ryegrass, Italian (ryegrass, Italian [11]; [13]): 0; Plant response rating, Kochia (kochia [12]; [13]): 0
CC1CN(C(=O)c2ccnc(-c3ccccn3)c2)c2cccc(Cl)c2O1 (stereo not shown) [Compound 198]	0	0	0	0	10	0	20	0	0	0	0	0	0	20	0	0	–
C[C@H]1CN(C(=O)c2cccc(-n3ccnn3)c2)c2cccc(Cl)c2O1 [Compound 199]	20	0	30	0	0	50	30	0	20	20	40	10	20	0	40	10	–
